Assay results from patent publication US10035780B2, “Quinazoline scaffold based compounds, pharmaceutical compositions and methods of use thereof” (TECHNION RESEARCH & DEVELOPMENT FOUNDATION LTD., priority 2014, dated 2018).
“Also recorded” adds a separate entry of the source.

Columns and labels:
PC12 cells = assay: Differentiation of PC12 cells to neuron like cells, with glutamate; assay type: cell-based, rat; conditions: 5 days
Experimental: Cell cultures of various human glial type cell lines (T98G, U87MG, A172, U118MG), as well as human neuronal type cell lines SH-SY 5Y and Be(2)-C were used to test the new compounds. In addition, the rat glioma cell line C6 was used. PC12 cells originating from rats were used as another cell line displaying neuronal characteristics. The applicants also have produced, by genetic manipulation, a modified rat C6 glial cell strain and a modified human U118MG glial type cell strain, both under-expressing the TSPO, which allows to study TSPO specific effects, including of the compounds of the invention, which can be done according to methods described previously (Weisinger et al. Biochemistry. 2004; 43:12315-21; Levin et al. 2005; Zeno et al., 2009).
Briefly, PC-12 cells were exposed to Cpd 1, in combination with glutamate, basically as described for the cell cultures of Example 1, and remained under that condition for 5 days.

R6-2 mice = assay type: in vivo; conditions: chronic s.c. treatment
Source text: R6-2 is a transgenic mouse model for Huntington Disease. Huntington Disease in humans is a hereditary neurodegenerative disease affecting motor performance and finally leading to death of the patients having the disease. R6-2 mice (˜120 CAG repeats B6CBA-Tg(HDexon1)62 Gpb/3J) mice were used for the experiments described below. For this purpose, mice obtained from the Jackson Laboratory (ME) were bred. In particular: males genotype: Hemizygous for Tg(HDexon1)62 Gpb, and females from the wildtype background strain B6CBAF1/J were bred according to the protocol of Jackson Laboratory. The male heterozygote offspring (R6-2 mice) were used for determining life span and motor activity, with and without drug treatment. Drug treatment consisted of daily (5 continuous days a week) subcutaneous injections of mice with 20 μl of: saline (sham control), vehicle DMSO (vehicle control), classic TSPO ligand PK 11195 (15 mg/kg), prior art Compound A (15 mg/kg), Compound 1 (15 mg/kg), and compound 1 (7.5 mg/kg). Drug treatment started on week 5 after birth. Quantities were used according to previous studies regarding TSPO ligands. […]
FIG. 6. […] In particular, from week 9, when the first mice death occurred, until week 16, when all mice were dead, average distance covered in an open field, per session, per experimental group, per week was measured in cm. […]

TSPO = TSPO (Homo sapiens (Human), UniProt P30536); assay type: binding; conditions: displacement of [3H]PK 11195 from TSPO
Experimental: Briefly, the assay utilizes radioactive standard ligand [^3H] PK 11195 (1-(2-chlorophenyl)-N-methyl-N-(1-methyl-propyl)-3 isoquinolinecarboxamide), and measures the ability of the compounds of the invention to displace standard ligand in binding to TSPO. Total radioactive binding was determined by measuring the radioactivity of the radioactive ligand-receptor complex, obtained in the reaction of radioactive standard with the TSPO. Radioactive standard and the examined compound were added to the TSPO and after some incubation time the radioactivity of the resulting ligand-receptor complexes was measured with the help of a […]. This radioactivity indicates the binding of the radioactive standard to TSPO. […] This can be expressed as the half maximal inhibitory concentration (IC50), which is a measure of the effectiveness of a compound in inhibiting biological or biochemical function, in this case inhibiting binding of standard radioactive ligand binding to the TSPO. A derivative of the IC50 is the Ki, which is the calculated binding affinity of the novel compound to the TSPO.
Binding to TSPO was evaluated using a [^3H]PK 11195 radio-assay, as described above.

[1] = Pharmacokinetic properties in the mouse after i.p. administration; assay type: in vivo
U118MG cells = assay: Collapse of the mitochondrial membrane potential (ΔΨm) induced by glutamate; assay type: cell-based, human; conditions: glutamate exposed cells
Source text: Techniques and parameters assayed are summarized here: Total protein levels (Bradford. Anal Biochem. 1976; 72:248-54); TSPO ligand binding assays (Kugler et al. 2008; Levin et al. 2005; Danovich et al. Eur Neuropsychopharmacol. 2008; 18:24-33) cell death, including apoptosis and necrosis and related molecular biological processes (Soustiel et al. Neuropathol Appl Neurobiol. 2008; 34:412-23; Soustiel et al. Exp Neurol. 2008; 214:201-8; Zeno et al. 2009); mitochondrial transmembrane potential collapse (Chelli et al. Biochem Pharmacol. 2004; 68:125-34; Kugler et al. 2008; Zeno et al., 2009; Shargorodsky et al. Apoptosis. 2012; 17:647-65), reactive oxygen species (ROS) generation as a measure of oxidative stress (Veenman et al. 2008; Zeno et al. 2009); TSPO knockdown (Levin et al. 2005; Zeno et al. 2009); expression levels of mitochondrial TSPO and associated proteins (Veenman et al. 2002; Levin et al. 2005; Veenman et al. 2008); gene expression with RT-PCR and microarray analysis (Bode et al. 2012; Veenman et al. 2012). Parameters of inflammation, immune response, migration, and the cell cycle are also tested. All these approaches can also be applied for quality control of the compounds.
Compound 1 is very effective at a concentration of 25 μM in this model (in order to achieve the same effect with the classical TSPO ligand PK 11195 a concentration of 50 μM has to be applied (data not shown).

Chain of TSPO (P30536 whole entry): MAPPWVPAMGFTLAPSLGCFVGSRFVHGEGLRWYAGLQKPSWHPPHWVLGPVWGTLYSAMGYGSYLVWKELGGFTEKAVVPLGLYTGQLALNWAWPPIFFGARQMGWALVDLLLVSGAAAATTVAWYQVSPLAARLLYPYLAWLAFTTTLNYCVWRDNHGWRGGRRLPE

## CCN(C)C(=O)Oc1nc(-c2ccccc2)nc2ccccc12 [Compound 1, 2-phenylquinazolin-4-yl ethyl(methyl)carbamate]
PC12 cells
  differentiation of PC12 cells toward neuronal type cells: able to transform PC-12 cells in cell culture to neuron like cells; also recorded: can induce differentiation
R6-2 mice
  adverse effects: No adverse effects
TSPO
  Ki: ~60 nM
[1]
  distribution to the brain: quite quickly distributed to the brain
[1]; brain, ip, read-out: Uptake ratio to the brain
  Kp: 0.2
[1]; in vivo, ip
  half-life: 3.5 h
U118MG cells
  concentration very effective in preventing ΔΨm collapse: 25 µM
  prevention of ΔΨm collapse induced by glutamate: prevents collapse
U118MG cells; listed as Cpd 1
  prevention of ΔΨm collapse induced by glutamate: prevented
